# Results as given in PMC6941846 (Bioorganic & medicinal chemistry, 2019).
# Like-named read-outs stand apart in the source and are kept apart here.
# Assays:
# HEK293T cells [1] = details: for reduction in cell number / cells killed: inhibitor 40 nM combined with compound 56 (90 nM or 270 nM)
# in vitro = details: human
# MELK [2] = target: T1, MELK (Homo sapiens, UniProt Q14680); details: FACS-sorted β-cells, vs vehicle; cited from earlier work
# human β-cells [3] = details: cited from earlier work
# 468 kinases = assay: Kinome SCAN profile; format: binding; details: 100 nM
# DYRK1A [4] = target: T2, DYRK1A (Homo sapiens, UniProt Q13627); assay: Kinome SCAN profile, DYRK1A; format: binding; details: read-out: DYRK1A residual activity
# human β-cells [5] = assay: Human islet β-cell replication
# HEK293T cells [6] = assay: Constitutive Renilla luciferase; format: cell-based; details: for fold reduction of cytotoxicity (R-Luc CC50): compared to OTS167 / parent; for R-Luc CC50: HEK293T cells, constitutive Renilla luciferase drops by 50%, 48 h; for Index (CC50/EC50), Cytotoxicity / Activity Index: R-Luc CC50 / DYRK1A-Luc EC50, HEK293T
# DYRK1A [7] = target: T2, DYRK1A; assay: DYRK1A NFAT luciferase response assay; format: cell-based; details: for DYRK1A-Luc EC50: HEK293T reporter cells, NFAT-dependent firefly luciferase, 48 h
# [8] = Caco-2 permeability assay; format: in vitro ADME; details: 10 μM, pH 7.4, direction not stated
# MELK [9] = target: T1, MELK; assay: MELK kinase binding assay
# [10] = Microsome stability assay, mouse liver microsomes; format: in vitro ADME; details: 1 μM compound, NADPH
# [11] = Microsome stability assay, human liver microsomes; format: in vitro ADME; details: 1 μM compound, NADPH
# T1 sequence (Q14680 whole entry): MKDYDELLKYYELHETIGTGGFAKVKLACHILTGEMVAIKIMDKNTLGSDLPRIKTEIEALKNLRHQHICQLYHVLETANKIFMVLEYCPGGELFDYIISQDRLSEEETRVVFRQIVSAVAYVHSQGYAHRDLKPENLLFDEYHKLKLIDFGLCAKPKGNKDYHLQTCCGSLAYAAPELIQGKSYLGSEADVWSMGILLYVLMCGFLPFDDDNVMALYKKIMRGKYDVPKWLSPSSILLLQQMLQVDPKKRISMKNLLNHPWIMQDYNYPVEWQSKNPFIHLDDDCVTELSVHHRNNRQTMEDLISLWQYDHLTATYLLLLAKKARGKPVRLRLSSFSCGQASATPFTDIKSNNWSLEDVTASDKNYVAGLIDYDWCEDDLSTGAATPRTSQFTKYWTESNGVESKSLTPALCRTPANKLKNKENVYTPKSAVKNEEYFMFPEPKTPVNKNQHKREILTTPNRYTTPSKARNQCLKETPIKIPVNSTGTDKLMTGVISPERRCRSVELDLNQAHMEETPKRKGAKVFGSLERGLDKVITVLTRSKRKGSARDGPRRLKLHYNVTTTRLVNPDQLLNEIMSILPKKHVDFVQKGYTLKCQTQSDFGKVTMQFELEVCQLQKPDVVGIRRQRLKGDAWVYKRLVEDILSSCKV
structure (smiles),measurement,setting,value
O=C(NC[C@H](O)CO)c1ccncc1Nc1ccc(I)cc1F [AS-703026],cells killed,"HEK293T cells [1]; inhibitor 10 uM combined with 56 (90 nM), 48 h",6%
CCN(CCO)CCCOc1ccc2c(Nc3cc(CC(=O)Nc4cccc(F)c4)[nH]n3)ncnc2c1 [AZD-1152-HQPA],reduction in cell number / cells killed,HEK293T cells [1]; 48 h,67%
same,CC50 at 48 h,in vitro,38.9 nM
c1cc(OCCN2CCCCC2)cc(-c2n[nH]c3ccc(-c4nc[nH]n4)cc23)c1 [CC-401],induction of MELK expression,MELK [2],2.6 fold
"Nc1ncnc2c1c(I)cn2[C@@H]1O[C@H](CO)[C@@H](O)[C@H]1O [Compound 5-IT, 5-iodotubercidin]",human β-cell replication induction-potency [ECmin],human β-cells [3],~ 100 nM
CC(=O)c1cnc2ccc(-c3cc(Cl)c(O)c(Cl)c3)nc2c1N[C@H]1CC[C@H](CN(C)C)CC1 [Compound 5],kinases inhibited to less than 35% of baseline activity,468 kinases,189/403
same,kinases with <1% residual activity,468 kinases,69/403
same,remaining binding at 0.1 µM,DYRK1A [4],< 1%
same,dose range in which β-cell replication occurred,human β-cells [5],5 to 40 nM
"CCOC(=O)c1cnc2ccc(-c3cc(Cl)c(O)c(Cl)c3)nc2c1N[C@H]1CC[C@H](CN(C)C)CC1 [Compound 15, Ethyl-6-(3,5-dichloro-4-hydroxyphenyl)-4-(((trans)-4 ((dimethylamino)methyl)cyclohexyl)amino)-1,5-naphthyridine-3-carboxylate]",fold reduction of cytotoxicity (R-Luc CC50),HEK293T cells [6]; HEK293T,~ 3 fold
"CN(C)C[C@H]1CC[C@H](Nc2c(C#N)cnc3ccc(-c4cc(Cl)c(O)c(Cl)c4)nc23)CC1 [Compound 16, 6-(3,5-Dichloro-4-hydroxyphenyl)-4-(((trans)-4-((dimethylamino)methyl)cyclohexyl)amino)-1,5-naphthyridine-3-carbonitrile]",fold reduction in DYRK1A inhibition potency,DYRK1A [7]; compared to OTS167,~ 9 fold
same,R-Luc CC50,HEK293T cells [6],virtually non-toxic
"CCOC(=O)c1cnc2ccc(-c3cc(Cl)c(O)c(Cl)c3)nc2c1Nc1ccc(CN(C)C)cc1 [Compound 27, Ethyl 6-(3,5-dichloro-4-hydroxyphenyl)-4-((4-((dimethylamino)methyl)phenyl)amino)-1,5-naphthyridine-3-carboxylate]",DYRK1A-Luc EC50,DYRK1A [7],maintained DYRK1A inhibition potency
same,fold reduction of cytotoxicity (R-Luc CC50),HEK293T cells [6]; HEK293T,~ 60 fold
"CCOC(=O)c1cnc2ccc(-c3cc(Cl)c(O)c(Cl)c3)nc2c1N[C@H]1CC[C@H](C)CC1 [Compound 32, Ethyl 6-(3,5-dichloro-4-hydroxyphenyl)-4-(((trans)-4-methylcyclohexyl)amino)-1,5-naphthyridine-3-carboxylate]",DYRK1A-Luc EC50,DYRK1A [7],eliminated cellular activity
"CCOC(=O)c1cnc2ccc(-c3cc(Cl)c(O)c(Cl)c3)nc2c1NC1CCN(C)CC1 [Compound 34, Ethyl 6-(3,5-dichloro-4-hydroxyphenyl)-4-((1-methylpiperidin-4-yl)amino)-1,5-naphthyridine-3-carboxylate]",fold increase in the Cytotoxicity / Activity Index,HEK293T cells [6]; compared to OTS167,~ 13 fold
same,fold reduction of cytotoxicity (R-Luc CC50),HEK293T cells [6]; HEK293T,~ 16 fold
same,Caco-2,[8],4.6 1 x 10^−6 cm/s
"CCOC(=O)c1cnc2ccc(-c3cc(Cl)c(O)c(Cl)c3)nc2c1N1CCCCC1 [Compound 35, Ethyl 6-(3,5-dichloro-4-hydroxyphenyl)-4-(piperidin-1-yl)-1,5-naphthyridine-3-carboxylate]",DYRK1A-Luc EC50,DYRK1A [7],reduced DYRK1A inhibition potency
same,R-Luc CC50,HEK293T cells [6],reduced cytotoxicity
"CCOC(=O)c1cnc2ccc(-c3cc(Cl)c(O)c(Cl)c3)nc2c1N1CCC(C)CC1 [Compound 36, Ethyl 6-(3,5-dichloro-4-hydroxyphenyl)-4-(4-methylpiperidin-1-yl)-1,5-naphthyridine-3-carboxylate]",DYRK1A-Luc EC50,DYRK1A [7],reduced DYRK1A inhibition potency
same,R-Luc CC50,HEK293T cells [6],reduced cytotoxicity
"CCOC(=O)c1cnc2ccc(-c3cc(Cl)c(O)c(Cl)c3)nc2c1N1CCOCC1 [Compound 37, Ethyl 6-(3,5-dichloro-4-hydroxyphenyl)-4-morpholino-1,5-naphthyridine-3-carboxylate]",DYRK1A-Luc EC50,DYRK1A [7],reduced DYRK1A inhibition potency
same,R-Luc CC50,HEK293T cells [6],reduced cytotoxicity
"CCOC(=O)c1cnc2ccc(-c3cc(Cl)c(O)c(Cl)c3)nc2c1N1CCNCC1 [Compound 38, Ethyl 6-(3,5-dichloro-4-hydroxyphenyl)-4-(piperazin-1-yl)-1,5-naphthyridine-3-carboxylate]",DYRK1A-Luc EC50,DYRK1A [7],reduced DYRK1A inhibition potency
same,fold less toxic than butyl amide counterpart (R-Luc CC50),HEK293T cells [6]; HEK293T,7 fold
same,R-Luc CC50,HEK293T cells [6],reduced cytotoxicity
same,"Index (CC50/EC50), Cytotoxicity / Activity Index",HEK293T cells [6],137
"CCOC(=O)c1cnc2ccc(-c3cc(Cl)c(O)c(Cl)c3)nc2c1N[C@H]1CC[C@H](C(=O)N(C)C)CC1 [Compound 42, Ethyl 6-(3,5-dichloro-4-hydroxyphenyl)-4-(((trans)-4-(dimethylcarbamoyl)cyclohexyl)amino)-1,5-naphthyridine-3-carboxylate]",Caco-2,[8],0.12 1 x 10^−6 cm/s
CCCCNC(=O)c1cnc2ccc(-c3cc(Cl)c(O)c(Cl)c3)nc2c1N[C@H]1CC[C@H](C(=O)N2CCOCC2)CC1 [Compound 47],Caco-2,[8],9.1 1 x 10^−6 cm/s
"CCOC(=O)c1cnc2ccc(-c3cc(Cl)c(O)c(Cl)c3)nc2c1N[C@H]1CC[C@H](CC(N)=O)CC1 [Compound 49, Ethyl 4-(((trans)-4-(2-amino-2-oxoethyl)cyclohexyl)amino)-6-(3,5-dichloro-4-hydroxyphenyl)-1,5-naphthyridine-3-carboxylate]",Caco-2,[8],0.01 1 x 10^−6 cm/s
"CCOC(=O)c1cnc2ccc(-c3cc(Cl)cc(Cl)c3)nc2c1N[C@H]1CC[C@H](CN(C)C)CC1 [Compound 50, Ethyl 6-(3,5-dichlorophenyl)-4-(((trans)-4-((dimethylamino)methyl)cyclohexyl)amino)-1,5-naphthyridine-3-carboxylate]",DYRK1A-Luc EC50,DYRK1A [7],abrogated DYRK1A-inhibition
"CCOC(=O)c1cnc2ccc(-c3cc(C)c(O)c(C)c3)nc2c1N[C@H]1CC[C@H](CN(C)C)CC1 [Compound 52, Ethyl 4-(((trans)-4-((dimethylamino)methyl)cyclohexyl)amino)-6-(4-hydroxy-3,5-dimethylphenyl)-1,5-naphthyridine-3-carboxylate]","Index (CC50/EC50), Cytotoxicity / Activity Index",HEK293T cells [6],> 842
"CCOC(=O)c1cnc2ccc(-c3ccncc3)nc2c1N[C@H]1CC[C@H](CN(C)C)CC1 [Compound 56, Ethyl 4-(((trans)-4-((dimethylamino)methyl)cyclohexyl)amino)-6-(pyridin-4-yl)-1,5-naphthyridine-3-carboxylate]",Kd,MELK [9],15 nM
same,MLM t1/2,[10],readily metabolized
same,HLM t1/2,[11],readily metabolized
same,Caco-2,[8],4.03 1 x 10^−6 cm/s
same,cytotoxicity (cell number),"HEK293T cells [1]; 56 alone at 30 nM, 90 nM or 270 nM, 48 h",no cytotoxicity
"CCNC(=O)c1cnc2ccc(-c3ccnc(N)c3)nc2c1N[C@H]1CC[C@H](CN(C)C)CC1 [Compound 60, 6-(2-Aminopyridin-4-yl)-4-(((trans)-4-((dimethylamino)methyl)cyclohexyl)amino)-N-ethyl-1,5-naphthyridine-3-carboxamide]",DYRK1A-Luc EC50,DYRK1A [7],maintained good DYRK1A activity
"CCOC(=O)c1cnc2ccc(-c3ccnc(N)c3)nc2c1N[C@H]1CC[C@H](CN2CCOCC2)CC1 [Compound 63, Ethyl 6-(2-aminopyridin-4-yl)-4-(((trans)-4-(morpholinomethyl)cyclohexyl)amino)-1,5-naphthyridine-3-carboxylate]",MLM t1/2,[10],readily metabolized
same,HLM t1/2,[11],readily metabolized
same,Caco-2,[8],2.7 1 x 10^−6 cm/s
CC(C)Oc1ccc(F)c(-c2cnc(N)c(C(=O)Nc3cnccc3N3CCC[C@@H](C(=O)O)C3)n2)c1 [GNF-4877],human β-cell replication induction-potency [ECmin],human β-cells [3],~ 100 nM
"COc1ccc2c(c1)[nH]c1c(C)nccc12 [Harmine, harmine]",human β-cell replication induction-potency [ECmin],human β-cells [3],"~ 3,000 nM"
O=C(O)[C@]1(Cc2cccc(Nc3nccs3)n2)CC[C@@H](Oc2cccc(Cl)c2F)CC1 [MK-5108],cells killed,"HEK293T cells [1]; MK 3 μM with 56 at 30 nM, 48 h",31%
same,cells killed,"HEK293T cells [1]; MK 3 μM with 56 at 90 nM, 48 h",36%
same,cells killed,"HEK293T cells [1]; MK 3 μM with 56 at 270 nM, 48 h",34%
same,CC50 at 48 h,in vitro; HEK293T cells,> 10000 nM
O=C(O)c1ccc(Nc2ncc3c(n2)-c2ccc(Cl)cc2C(c2c(F)cccc2F)=NC3)cc1 [MLN-8054],reduction in cell number / cells killed,HEK293T cells [1]; 48 h,50%
same,CC50 at 48 h,in vitro,55.1 nM
Cn1c(=O)c(F)c(Nc2ccc(I)cc2F)c2c(=O)n(C[C@@H](O)CO)cnc21 [TAK-733],cytotoxicity in combination,"HEK293T cells [1]; TAK-733 10 uM combined with 56 (30 nM, 90 nM, or 270 nM)",did not exhibit cytotoxicity
same,cells killed,"HEK293T cells [1]; inhibitor alone at 10 uM, 48 h",did not exhibit cytotoxicity
